Reference: PMC10292217, “Gene-nutrient interactions that impact magnesium homeostasis increase risk for neural tube defects in mice exposed to dolutegravir” (Frontiers in Cell and Developmental Biology, 2023)
Marks after values point to notes of the source that are not given here.

How the values were obtained:
LM/Bc mice = assay: DTG-NTD susceptibility, embryo phenotyping on GD 9.5, LM/Bc dams; assay type: in vivo, mouse
Description: Breeding colonies and experimental mice were housed in Thoren micro-isolator cages with autoclaved corncob bedding and maintained on a 12-h light-dark cycle in climate-controlled AAALAC-accredited animal facilities at Creighton University. Mice were given ad libitum access to autoclaved water and pelleted irradiated rodent chow. For timed matings, nulliparous female mice were placed with a male overnight (1 male:2-3 females). The presence of a vaginal plug the next morning was considered GD 0.5. Plugged females were weighed, placed into a separate cage, and randomly assigned to a treatment group. All animal procedures were performed in accordance with the Public Health Service (PHS) policy on Humane Care and Use of Laboratory Animals and approved by the Creighton University Institutional Animal Care and Use Committee (IACUC).
Dolutegravir (CAS 1051375-16-6, GSK1349572) was purchased from MedKoo Biosciences (Morrisville, NC). Pregnant mice were dosed with vehicle (dimethylsulfoxide: Solutol®: 50 mM N-methylglucamine in 3% mannitol [1:1:8, v:w:v]) ([Moss et al., 2015]) or DTG (500 mg/kg or 750 mg/kg) by daily oral gavage beginning on GD 0.5 and continuing until the day of sacrifice (GD 9.5). All treatments were administered in a volume of 0.1 mL/10 g bodyweight (bwt).
The SWV and LM/Bc breeding colonies have been maintained on Envigo Rodent Chow #8904 (a soy protein-based irradiated diet) for >20 years. C3H/HeJ and C57BL/6J mice (6–10 weeks old) were immediately placed on Envigo #8904 upon arrival at Creighton University and were maintained on this diet for a minimum of 1 month prior to analysis of basal plasma and urine cations. The National Research Council (NRC) estimate for the minimum Mg^2+ requirement in adult mice is […] of diet (0.05%). Magnesium in standard rodent diets ranges between […]; the Envigo #8904 soy diet contains .3% Mg^2+ by weight ([…] the NRC requirement) and was therefore considered a ‘high’ Mg^2+ diet. Sources of Mg^2+ in the soy diet include magnesium oxide (∼20%) and Mg^2+ found naturally in grain ingredients (∼80%); it was therefore not possible to remove Mg^2+ to create a soy-based version that was Mg^2+ deficient. To test the hypothesis that low maternal plasma Mg^2+ prior to conception would increase susceptibility to DTG-induced NTDs, it was necessary to switch to casein-based purified ingredient diets with defined levels of Mg^2+ added back. The following casein-based purified ingredient diets were selected as experimental diets: TD.120,574 high Mg^2+ diet (.3% Mg^2+ oxide added to match the .3% high Mg^2+ soy-based diet); TD.98341 control Mg^2+ diet with 0.05% Mg oxide added back to match the NRC requirement; and TD.93106 Mg^2+-deficient diet (<.003%, no Mg^2+ added back). The purified casein diets met or exceeded the NRC requirements for all other minerals and vitamins, including folic acid (Supplementary Table S1: Diet Comparison). Thus, the 4 experimental diets were as follows: 1) high Mg^2+ (.3%) soy diet; 2) high Mg^2+ ([…]) casein diet; 3) control Mg^2+ (.05%) casein diet; and 4) deficient Mg^2+ (<.003%) casein diet. […] Our initial DTG teratology studies were performed in mice on the high Mg^2+ soy diet. However, our objective in the second set of experiments was to reduce pre-conception plasma Mg^2+ levels prior to DTG exposure. To accomplish this objective, weaned female mice were placed on either the high Mg^2+ casein diet or one of the 2 casein-based experimental diets with reduced Mg^2+ (control or deficient) for a minimum of 2 weeks. After this minimum period of acclimation to the experimental casein-based diets, blood and urine samples were collected for Inductively Coupled Plasma Mass Spectrometry (ICP-MS) determination of Mg^2+ (and other cations).
Pregnant dams were anesthetized with isoflurane and sacrificed by cervical dislocation on GD 9.5. […]

Whole rat embryos = system: Whole rat embryos; set-up: method as in Posobiec et al., 2021; conditions: exposure GD 9-11; concentrations approx. 2 times plasma concentration at MRHD; ref Posobiec et al., 2021; cited from earlier work
FOLR1 = system: FOLR1; set-up: method as in Gilmore et al., 2022; conditions: human choriocarcinoma cells; ref Gilmore et al., 2022; cited from earlier work
[1] = system: P19C5 mouse embryonal carcinoma cell; set-up: method as in Kirkwood-Johnson et al., 2021; conditions: exposure within the first 1-2 days; ref Kirkwood-Johnson et al., 2021; cited from earlier work
rats = conditions: 2020, cited from earlier work
[2] = control Mg2+ (0.05%) casein diet, DTG500
[3] = control Mg2+ (0.05%) casein diet, DTG750
[4] = high Mg2+ (0.3%) casein diet, DTG750
[5] = high Mg2+ (0.3%) soy diet, DTG 750 mg/kg/d oral GD 0.5-GD 9.5, average % (SD)
[6] = high Mg2+ (0.3%) soy diet, DTG 750 mg/kg/d oral GD 0.5-GD 9.5, mean (SD)
[7] = high Mg2+ (0.3%) soy diet, DTG 750 mg/kg/d oral GD 0.5-GD 9.5, mean (SD) per litter
[8] = high Mg2+ soy diet, DTG500, n = 7 litters

C[C@@H]1CCO[C@H]2Cn3cc(C(=O)NCc4ccc(F)cc4F)c(=O)c(O)c3C(=O)N12 [DTG, Dolutegravir]
NTD-affected litters (LM/Bc mice; [2]): 62% | NTD-affected litters / litters examined (LM/Bc mice; [2]): 8/13 | exencephalic embryos per litter (LM/Bc mice; [2]): 1 to 5 | total NTDs (LM/Bc mice; control Mg2+ (0.05%) casein diet, DTG500, of 116 implants): 19 | NTD-affected litters (LM/Bc mice; [3]): 85% | NTD-affected litters / litters examined (LM/Bc mice; [3]): 11/13 | exencephalic embryos per litter (LM/Bc mice; [3]): 1 to 6 | total NTDs (LM/Bc mice; control Mg2+ (0.05%) casein diet, DTG750, of 105 implants): 33 | NTD-affected litters (LM/Bc mice; [4]): 19% | exencephalic embryos per affected litter (LM/Bc mice; [4]): 1 | mean rate NTDs/litter (LM/Bc mice; [4]): 2% | NTD-affected litters / litters examined (LM/Bc mice; high Mg2+ (0.3%) casein diet, DTG750, 90 implants total): 3/16 | Dev delay/implants, index value (LM/Bc mice; [5]): 8.1% (17.76) | NTDs/embryos, index value (LM/Bc mice; [5]): 20.9% (23.65)^** | NTDs/implants, index value (LM/Bc mice; [5]): 17.7% (20.63)^** | Resorptions/implants, index value (LM/Bc mice; [5]): 11.5% (15.75) | Implants per litter (LM/Bc mice; [6]): 8.74 (2.47) | Resorptions per litter (LM/Bc mice; [6]): 0.95 (1.27) | Dev. delayed (LM/Bc mice; [7]): 0.58 (0.96) | NTDs (LM/Bc mice; [7]): 1.47 (1.74)^** | Total viable embryos (LM/Bc mice; [7]): 7.79 (2.76) | NTDs observed (LM/Bc mice; high Mg2+ soy diet, DTG 500 mg/kg/d (DTG500), n = 7 litters): No NTDs | developmental delays (LM/Bc mice; [8]): no developmental delays | implants (total) (LM/Bc mice; [8]): 71 | resorptions (total) (LM/Bc mice; [8]): 9 | viable embryos developmentally normal (total) (LM/Bc mice; [8]): 62 | NTD-affected litters / litters examined (LM/Bc mice; high Mg2+ soy diet, DTG750): 12/19 | NTDs/affected litter (LM/Bc mice; high Mg2+ soy diet, DTG750): 1–6 | total pups with exencephaly (LM/Bc mice; high Mg2+ soy diet, DTG750, out of 166 total implants): 28 | developmental toxicity or NTDs (Whole rat embryos): no developmental toxicity or NTDs were observed | FOLR1-mediated uptake (FOLR1): reduced | growth and axial elongation [1]: concentration-dependent inhibition of growth and axial elongation | DTG-related maternal or developmental toxicity (rats; oral doses up to 1000 mg/kg/d, GD 6 to GD 17, ref Stanislaus et al.): no significant evidence | NOAEL (rats; preclinical studies, ref Stanislaus et al.): 1000 mg/kg/day
